Active and inactive are the calls of the source. No cut-off for these calls is given here.
test system: Plasmodium falciparum; assay: Antimalarial activity against chloroquine-sensitive Plasmodium falciparum 3D7 infected in human erythrocytes assessed as reduction in parasite growth incubated for 72 hrs by SYBR green dye fluorimetric assay; format: functional, organism-based; settings: 3D7, Erythrocyte

| SMILES | IC50 [nM] |
| --- | --- |
| O=C(NCc1cn(-c2ccc(F)cc2)nn1)c1cc2c([nH]c3ccccc32)c(-c2ccc(Cl)cc2Cl)n1 | 1840 |
| Cc1ccc(-n2cc(CNC(=O)c3cc4c([nH]c5ccccc54)c(-c4ccc(Cl)cc4Cl)n3)nn2)cc1 | 2500 |
| COc1ccc(-c2nc(C(=O)NCc3cn(-c4ccccc4)nn3)cc3c2[nH]c2ccccc23)cc1 | 1570 |
| Cc1ccc(-c2nc(C(=O)NCc3cn(-c4ccc(F)cc4)nn3)cc3c2[nH]c2ccccc23)cc1 | 1940 |
| O=C(NCc1cn(-c2ccc(C(F)(F)F)cc2)nn1)c1cc2c([nH]c3ccccc32)c(-c2ccc(Cl)cc2Cl)n1 | 980 |
| COc1ccc(-n2cc(CNC(=O)c3cc4c([nH]c5ccccc54)c(-c4ccc(Cl)cc4Cl)n3)nn2)cc1 | 920 |
| C#CCNC(=O)c1cc2c([nH]c3ccccc32)c(-c2ccc(F)cc2)n1 | 3460 |

test system: Plasmodium falciparum; assay: Antimalarial activity against […] infected in human erythrocytes assessed as reduction in parasite growth incubated for 72 hrs by SYBR green dye fluorimetric assay; format: functional, organism-based; settings: K1, Erythrocyte

| SMILES | IC50 [nM] |
| --- | --- |
| O=C(NCc1cn(-c2ccc(C(F)(F)F)cc2)nn1)c1cc2c([nH]c3ccccc32)c(-c2ccc(Cl)cc2Cl)n1 | 760 |
| COc1ccc(-n2cc(CNC(=O)c3cc4c([nH]c5ccccc54)c(-c4ccc(Cl)cc4Cl)n3)nn2)cc1 | 570 |

test system: not listed separately; assay: Cytotoxicity against human HepG2 cells; format: toxicity, cell-based; settings: not given

| SMILES | CC50 [µM] |
| --- | --- |
| O=C(NCc1cn(-c2ccc(F)cc2)nn1)c1cc2c([nH]c3ccccc32)c(-c2ccc(Cl)cc2Cl)n1 | 167 |
| Cc1ccc(-n2cc(CNC(=O)c3cc4c([nH]c5ccccc54)c(-c4ccc(Cl)cc4Cl)n3)nn2)cc1 | 222 |
| COc1ccc(-c2nc(C(=O)NCc3cn(-c4ccccc4)nn3)cc3c2[nH]c2ccccc23)cc1 | 79.5 |
| Cc1ccc(-c2nc(C(=O)NCc3cn(-c4ccc(F)cc4)nn3)cc3c2[nH]c2ccccc23)cc1 | 177 |
| O=C(NCc1cn(-c2ccc(C(F)(F)F)cc2)nn1)c1cc2c([nH]c3ccccc32)c(-c2ccc(Cl)cc2Cl)n1 | 240 |
| COc1ccc(-n2cc(CNC(=O)c3cc4c([nH]c5ccccc54)c(-c4ccc(Cl)cc4Cl)n3)nn2)cc1 | 221 |
| C#CCNC(=O)c1cc2c([nH]c3ccccc32)c(-c2ccc(F)cc2)n1 | 167 |

test system: Plasmodium falciparum; assay: Induction of morphological changes in asexual blood stage Plasmodium falciparum assessed as appearance of fragmentation at 1 uM incubated for 24 hrs by Geimsa-staining based light microscopic analysis; format: functional, organism-based; settings: not given

| SMILES | Activity |
| --- | --- |
| O=C(NCc1cn(-c2ccc(C(F)(F)F)cc2)nn1)c1cc2c([nH]c3ccccc32)c(-c2ccc(Cl)cc2Cl)n1 | Active; Irreversible Structural Deformations Observed |
| COc1ccc(-n2cc(CNC(=O)c3cc4c([nH]c5ccccc54)c(-c4ccc(Cl)cc4Cl)n3)nn2)cc1 | Active; Irreversible Structural Deformations Observed |

test system: not listed separately; assay: Selectivity index, ratio of CC50 for cytotoxicity against human HepG2 cells to IC50 for antimalarial activity against chloroquine-sensitive Plasmodium falciparum 3D7 infected in human erythrocytes assessed as reduction in parasite growth incubated for 72 hrs by SYBR green dye fluorimetric assay; format: toxicity, cell-based; settings: read-out: Ratio CC50/IC50

| SMILES | selectivity ratio at 72 h |
| --- | --- |
| O=C(NCc1cn(-c2ccc(F)cc2)nn1)c1cc2c([nH]c3ccccc32)c(-c2ccc(Cl)cc2Cl)n1 | 90.5 |
| Cc1ccc(-n2cc(CNC(=O)c3cc4c([nH]c5ccccc54)c(-c4ccc(Cl)cc4Cl)n3)nn2)cc1 | 88.8 |
| COc1ccc(-c2nc(C(=O)NCc3cn(-c4ccccc4)nn3)cc3c2[nH]c2ccccc23)cc1 | 50.6 |
| Cc1ccc(-c2nc(C(=O)NCc3cn(-c4ccc(F)cc4)nn3)cc3c2[nH]c2ccccc23)cc1 | 91.4 |
| O=C(NCc1cn(-c2ccc(C(F)(F)F)cc2)nn1)c1cc2c([nH]c3ccccc32)c(-c2ccc(Cl)cc2Cl)n1 | 245 |
| COc1ccc(-n2cc(CNC(=O)c3cc4c([nH]c5ccccc54)c(-c4ccc(Cl)cc4Cl)n3)nn2)cc1 | 240 |

test system: Plasmodium falciparum; assay: Induction of morphological changes in asexual blood stage Plasmodium falciparum assessed as appearance of schizonts at 1 uM incubated for 48 to 72 hrs by Geimsa-staining based light microscopic analysis; format: functional, organism-based; settings: time 48-72 hrs

| SMILES | Activity |
| --- | --- |
| O=C(NCc1cn(-c2ccc(C(F)(F)F)cc2)nn1)c1cc2c([nH]c3ccccc32)c(-c2ccc(Cl)cc2Cl)n1 | inactive |
| COc1ccc(-n2cc(CNC(=O)c3cc4c([nH]c5ccccc54)c(-c4ccc(Cl)cc4Cl)n3)nn2)cc1 | inactive |

test system: Plasmodium falciparum; assay: Antimalarial activity against […] infected in human erythrocytes assessed as inhibition of parasitic growth at 5 uM incubated for 72 hrs by SYBR green dye fluorimetric assay relative to control; format: functional, K1, Erythrocyte; parameters: scale not given: the % may be the effect or the level left; settings: not given

| SMILES | Activity [%] |
| --- | --- |
| O=C(NCc1cn(-c2ccc(C(F)(F)F)cc2)nn1)c1cc2c([nH]c3ccccc32)c(-c2ccc(Cl)cc2Cl)n1 | 95.63 |
| COc1ccc(-n2cc(CNC(=O)c3cc4c([nH]c5ccccc54)c(-c4ccc(Cl)cc4Cl)n3)nn2)cc1 | 95.63 |

test system: not listed separately; assay: Resistance index, ratio of IC50 for antimalarial activity against […] infected in human erythrocytes to IC50 for antimalarial activity against chloroquine-sensitive Plasmodium falciparum 3D7 infected in erythrocytes; format: functional; settings: not given

| SMILES | Ratio IC50 |
| --- | --- |
| O=C(NCc1cn(-c2ccc(C(F)(F)F)cc2)nn1)c1cc2c([nH]c3ccccc32)c(-c2ccc(Cl)cc2Cl)n1 | 0.78 |
| COc1ccc(-n2cc(CNC(=O)c3cc4c([nH]c5ccccc54)c(-c4ccc(Cl)cc4Cl)n3)nn2)cc1 | 0.62 |

test system: Plasmodium falciparum; assay: Induction of morphological changes in asexual blood stage Plasmodium falciparum assessed as appearance of condensed cytoplasm at 1 uM incubated for 24 hrs by Geimsa-staining based light microscopic analysis; format: functional, organism-based; settings: not given

| SMILES | Activity |
| --- | --- |
| O=C(NCc1cn(-c2ccc(C(F)(F)F)cc2)nn1)c1cc2c([nH]c3ccccc32)c(-c2ccc(Cl)cc2Cl)n1 | Active; Irreversible Structural Deformations Observed |
| COc1ccc(-n2cc(CNC(=O)c3cc4c([nH]c5ccccc54)c(-c4ccc(Cl)cc4Cl)n3)nn2)cc1 | Active; Irreversible Structural Deformations Observed |

test system: Plasmodium falciparum; assay: Induction of morphological changes in asexual blood stage Plasmodium falciparum assessed as lack of prominent periphery in trophozoites at 1 uM incubated for 24 hrs by Geimsa-staining based light microscopic analysis; format: functional, organism-based; settings: not given

| SMILES | Activity |
| --- | --- |
| O=C(NCc1cn(-c2ccc(C(F)(F)F)cc2)nn1)c1cc2c([nH]c3ccccc32)c(-c2ccc(Cl)cc2Cl)n1 | Active; Irreversible Structural Deformations Observed |
| COc1ccc(-n2cc(CNC(=O)c3cc4c([nH]c5ccccc54)c(-c4ccc(Cl)cc4Cl)n3)nn2)cc1 | Active; Irreversible Structural Deformations Observed |

test system: Plasmodium falciparum; assay: Induction of morphological changes in asexual blood stage Plasmodium falciparum assessed as appearance of healthy rings at 1 uM incubated for 48 to 72 hrs by Geimsa-staining based light microscopic analysis; format: functional, organism-based; settings: time 48-72 hrs

| SMILES | Activity |
| --- | --- |
| O=C(NCc1cn(-c2ccc(C(F)(F)F)cc2)nn1)c1cc2c([nH]c3ccccc32)c(-c2ccc(Cl)cc2Cl)n1 | inactive |
| COc1ccc(-n2cc(CNC(=O)c3cc4c([nH]c5ccccc54)c(-c4ccc(Cl)cc4Cl)n3)nn2)cc1 | inactive |

test system: Plasmodium falciparum; assay: Induction of morphological changes in asexual blood stage Plasmodium falciparum assessed as appearance of compact structure at 1 uM incubated for 24 hrs by Geimsa-staining based light microscopic analysis; format: functional, organism-based; settings: not given

| SMILES | Activity |
| --- | --- |
| O=C(NCc1cn(-c2ccc(C(F)(F)F)cc2)nn1)c1cc2c([nH]c3ccccc32)c(-c2ccc(Cl)cc2Cl)n1 | Active; Irreversible Structural Deformations Observed |
| COc1ccc(-n2cc(CNC(=O)c3cc4c([nH]c5ccccc54)c(-c4ccc(Cl)cc4Cl)n3)nn2)cc1 | Active; Irreversible Structural Deformations Observed |

test system: Plasmodium falciparum; assay: Antimalarial activity against […] infected in human erythrocytes assessed as inhibition of parasitic growth at 0.16 to 0.63 uM incubated for 72 hrs by SYBR green dye fluorimetric assay relative to control; format: functional, K1, Erythrocyte; parameters: scale not given: the % may be the effect or the level left; settings: dose 0.16-0.63 µM

| SMILES | Activity [%] |
| --- | --- |
| O=C(NCc1cn(-c2ccc(C(F)(F)F)cc2)nn1)c1cc2c([nH]c3ccccc32)c(-c2ccc(Cl)cc2Cl)n1 | 14 |

test system: Plasmodium falciparum; assay: Antimalarial activity against chloroquine-sensitive Plasmodium falciparum 3D7 infected in erythrocytes assessed as inhibition of parasite growth at 0.16 to 0.31 uM incubated for 72 hrs by SYBR green dye fluorimetric assay; format: functional, organism-based; settings: Erythrocyte, dose 0.16-0.31 µM

| SMILES | Activity |
| --- | --- |
| O=C(NCc1cn(-c2ccc(C(F)(F)F)cc2)nn1)c1cc2c([nH]c3ccccc32)c(-c2ccc(Cl)cc2Cl)n1 | Active |

Source: ChEMBL document CHEMBL6177959, “Design, synthesis and evaluation of novel carboline-triazole hybrids as promising antimalarial agents” (Eur J Med Chem, 2025)
